From patent US6017935A, “7-sulfur substituted paclitaxels” (Bristol-Myers Squibb Company, priority 1998, dated 2000)

Test system: HCT-116 human colon carcinoma cells
Experiment: Cytotoxicity (in vitro) MTS assay in HCT-116 human colon carcinoma cells
Format: cell-based
Settings: Homo sapiens, HCT-116, 72 h, read-out: IC50 HCT 116, HCT-116 cells, MTS assay, 72 hours at 37° C.; drug concentration required to inhibit cell proliferation to 50% of untreated control
Experimental: Cytoxicity was assessed in HCT-116 human colon carcinoma cells by MTS (3-(4,5-dimethylthiazol-2-yl)-5-(3-carboxymethoxyphenyl)-2-(4-sulphenyl)-2H-tetrazolium, inner salt) assay as reported in T. L. Riss, et al., "Comparison of MTT, XTT, and a novel tetrazolium compound MTS for in vitro proliferation and chemosensitivity assays.", Mol. Biol. Cell 3 (Suppl.):184a, 1992. Cells were plated at 4,000 cell/well in 96 well microtiter plates and 24 hours later drugs were added and serial diluted. The cells were incubated at 37° C. for 72 hours at which time the tetrazolium dye, MTS at 333 μg/ml (final concentration), in combination with the electron coupling agent phenazine methosulfate at 25 μM (final concentration) was added. A dehydrogenase enzyme in live cell reduces the MTS to a form that absorbs light at […] which can be quantitated spectrophotometrically. The greater the absorbance the greater the number of live cells. The results are expressed as an IC50, which is the drug concentration required to inhibit cell proliferation (i.e. absorbance at 450 nm) to 50% of that of untreated control cells.

Going from `CC(=O)O[C@H]1C(=O)[C@]2(C)[C@@H](SC[S+](C)[O-])C[C@H]3OC[C@@]3(OC(C)=O)[C@H]2[C@H](OC(=O)c2ccccc2)[C@]2(O)C[C@H](OC(=O)[C@H](O)[C@@H](NC(=O)c3ccccc3)c3ccccc3)C(C)=C1C2(C)C` (stereo partly drawn) [31a&b, 7-deoxy-7β-methylsulfinylmethylthiopaclitaxel] to `CCS[C@H]1C[C@H]2OC[C@@]2(OC(C)=O)[C@H]2[C@H](OC(=O)c3ccccc3)[C@]3(O)C[C@H](OC(=O)[C@H](O)[C@@H](NC(=O)c4ccccc4)c4ccccc4)C(C)=C([C@@H](OC(C)=O)C(=O)[C@]12C)C3(C)C` [Compound 24a, 7-deoxy-7β-thioethylpaclitaxel], the IC50 falls from 6.48 nM to 4.02 nM (1.6-fold).

Going from `CS[C@@H]1C[C@H]2OC[C@@]2(OC(C)=O)[C@H]2[C@H](OC(=O)c3ccccc3)[C@]3(O)C[C@H](OC(=O)[C@H](O)[C@@H](NC(=O)c4ccccc4)c4ccccc4)C(C)=C([C@@H](OC(C)=O)C(=O)[C@@]21C)C3(C)C` [Compound 5a, 7-deoxy-7α-thiomethylpaclitaxel] to `CS[C@H]1C[C@H]2OC[C@@]2(OC(C)=O)[C@H]2[C@H](OC(=O)c3ccccc3)[C@]3(O)C[C@H](OC(=O)[C@H](O)[C@@H](NC(=O)c4ccccc4)c4ccccc4)C(C)=C([C@@H](OC(C)=O)C(=O)[C@]12C)C3(C)C` [Compound 18a, 7-deoxy-7β-thiomethylpaclitaxel], the IC50 falls from 13.1 nM to 0.2 nM (66-fold).

Compared with `CC(=O)O[C@H]1C(=O)[C@@]2(C)[C@H]([C@H](OC(=O)c3ccccc3)[C@]3(O)C[C@H](OC(=O)[C@H](O)[C@@H](NC(=O)c4ccccc4)c4ccccc4)C(C)=C1C3(C)C)[C@]1(OC(C)=O)CO[C@@H]1C[C@@H]2S` [Compound 14a, 7-deoxy-7β-thiopaclitaxel], `CC(=O)O[C@H]1C(=O)[C@@]2(C)[C@H]([C@H](OC(=O)c3ccccc3)[C@]3(O)C[C@H](OC(=O)[C@H](O)[C@@H](NC(=O)c4ccccc4)c4ccccc4)C(C)=C1C3(C)C)[C@]1(OC(C)=O)CO[C@@H]1C[C@@H]2O` [paclitaxel] is lower in IC50: 13.5 nM for the first, 1.71 to 2.28 nM for the second.

Compared with `COCS[C@H]1C[C@H]2OC[C@@]2(OC(C)=O)[C@H]2[C@H](OC(=O)c3ccccc3)[C@]3(O)C[C@H](OC(=O)[C@H](O)[C@@H](NC(=O)c4ccccc4)c4ccccc4)C(C)=C([C@@H](OC(C)=O)C(=O)[C@]12C)C3(C)C` [Compound 16a, 7-deoxy-7β-thiomethoxymethyl paclitaxel], `CC(=O)O[C@H]1C(=O)[C@]2(C)[C@@H](SCCO)C[C@H]3OC[C@@]3(OC(C)=O)[C@H]2[C@H](OC(=O)c2ccccc2)[C@]2(O)C[C@H](OC(=O)[C@H](O)[C@@H](NC(=O)c3ccccc3)c3ccccc3)C(C)=C1C2(C)C` [Compound 20a, 7-deoxy-7β-(2-hydroxethylthio)paclitaxel] is 1.6-fold higher in IC50: 0.5 nM for the first, 0.82 nM for the second. The first is the more potent here.

Compared with `CS[C@H]1C[C@H]2OC[C@@]2(OC(C)=O)[C@H]2[C@H](OC(=O)c3ccccc3)[C@]3(O)C[C@H](OC(=O)[C@H](O)[C@@H](NC(=O)OC(C)(C)C)c4ccccc4)C(C)=C([C@@H](OC(C)=O)C(=O)[C@]12C)C3(C)C` [Compound 22a, 3'-NH-Boc-7-deoxy-7β-thiomethylpaclitaxel], `C=CS[C@H]1C[C@H]2OC[C@@]2(OC(C)=O)[C@H]2[C@H](OC(=O)c3ccccc3)[C@]3(O)C[C@H](OC(=O)[C@H](O)[C@@H](NC(=O)c4ccccc4)c4ccccc4)C(C)=C([C@@H](OC(C)=O)C(=O)[C@]12C)C3(C)C` [Compound 27a, 7-deoxy-7β-thiovinylpaclitaxel] is 4-fold higher in IC50: 0.3 nM for the first, 1.2 nM for the second.

Going from `CC(=O)O[C@H]1C(=O)[C@]2(C)[C@@H](SCC#N)C[C@H]3OC[C@@]3(OC(C)=O)[C@H]2[C@H](OC(=O)c2ccccc2)[C@]2(O)C[C@H](OC(=O)[C@H](O)[C@@H](NC(=O)c3ccccc3)c3ccccc3)C(C)=C1C2(C)C` [Compound 25a] to `CC(=O)O[C@H]1C(=O)[C@]2(C)[C@@H](SC#N)C[C@H]3OC[C@@]3(OC(C)=O)[C@H]2[C@H](OC(=O)c2ccccc2)[C@]2(O)C[C@H](OC(=O)[C@H](O)[C@@H](NC(=O)c3ccccc3)c3ccccc3)C(C)=C1C2(C)C` [Compound 28a, 7-deoxy-7β-thiocyanatopaclitaxel], the IC50 rises from less than 0.04 nM to 1.8 nM.

First: CC(=O)O[C@H]1C(=O)[C@]2(C)[C@@H](SCc3ccccn3)C[C@H]3OC[C@@]3(OC(C)=O)[C@H]2[C@H](OC(=O)c2ccccc2)[C@]2(O)C[C@H](OC(=O)[C@H](O)[C@@H](NC(=O)c3ccccc3)c3ccccc3)C(C)=C1C2(C)C [Compound 30a, 7-deoxy-7β-(thio-2-picolyl)-paclitaxel]
Second: COC(=O)/C=C/S[C@H]1C[C@H]2OC[C@@]2(OC(C)=O)[C@H]2[C@H](OC(=O)c3ccccc3)[C@]3(O)C[C@H](OC(=O)[C@H](O)[C@@H](NC(=O)c4ccccc4)c4ccccc4)C(C)=C([C@@H](OC(C)=O)C(=O)[C@]12C)C3(C)C [Compound 34a, 7-deoxy-7β-thio-(3-methylacrylate)paclitaxel]
The IC50 of the first is 6.2-fold lower: 1.12 nM for the first, 6.97 nM for the second.

Work on `COC(=O)/C=C\S[C@H]1C[C@H]2OC[C@@]2(OC(C)=O)[C@H]2[C@H](OC(=O)c3ccccc3)[C@]3(O)C[C@H](OC(=O)[C@H](O)[C@@H](NC(=O)c4ccccc4)c4ccccc4)C(C)=C([C@@H](OC(C)=O)C(=O)[C@]12C)C3(C)C` [Compound 35a, 7-deoxy-7β-thio-(3-methylacrylate)paclitaxel] yielded an IC50 of 1.76 nM.

Same assay, conditions: Homo sapiens; HCT-116 cells, MTS assay, 72 hours at 37° C.; drug concentration required to inhibit cell proliferation to 50% of untreated control; read-out: IC50 HCT 116

Compared with `CC(=O)O[C@H]1C(=O)[C@@]2(C)[C@H]([C@H](OC(=O)c3ccccc3)[C@]3(O)C[C@H](OC(=O)[C@H](O)[C@@H](NC(=O)c4ccccc4)c4ccccc4)C(C)=C1C3(C)C)[C@]1(OC(C)=O)CO[C@@H]1C[C@H]2S(C)(=O)=O` [Compound 7a, 7-deoxy-7α-methylsulfonylpaclitaxel], `CC(=O)O[C@@H]1C2=C(C)[C@@H](OC(=O)[C@H](O)[C@@H](NC(=O)c3ccccc3)c3ccccc3)C[C@@](O)([C@@H](OC(=O)c3ccccc3)[C@@H]3[C@]4(OC(C)=O)CO[C@@H]4C[C@@H]4[C@@]3(C)C1(O)CS4(=O)=O)C2(C)C` (stereo partly drawn) [Compound 9a] is 24-fold lower in IC50: 72.3 nM for the first, 2.99 nM for the second. The second is the more potent here.

Same assay, conditions: read-out: IC50 HCT 116; HCT-116 cells, MTS assay, 72 hours at 37° C.; drug concentration required to inhibit cell proliferation to 50% of untreated control

For `CC(=O)O[C@H]1C(=O)[C@]2(C)[C@@H]([S+](C)[O-])C[C@H]3OC[C@@]3(OC(C)=O)[C@H]2[C@H](OC(=O)c2ccccc2)[C@]2(O)C[C@H](OC(=O)[C@H](O)[C@@H](NC(=O)c3ccccc3)c3ccccc3)C(C)=C1C2(C)C` (single isomer, unassigned) [Compound 29a, 7-deoxy-7β-methylsulfinyl-paclitaxel], the IC50 was 3.99 nM.
In the case of `CC(=O)O[C@H]1C(=O)[C@]2(C)[C@@H]([S+](C)[O-])C[C@H]3OC[C@@]3(OC(C)=O)[C@H]2[C@H](OC(=O)c2ccccc2)[C@]2(O)C[C@H](OC(=O)[C@H](O)[C@@H](NC(=O)c3ccccc3)c3ccccc3)C(C)=C1C2(C)C` (single isomer, unassigned) [Compound 29b, 7-deoxy-7β-methylsulfinyl-paclitaxel], the IC50 is reported as 12.1 nM.

Test system: not given
Experiment: not given
Settings: background statement; cited from earlier work

In the case of `CC(=O)O[C@@]12CO[C@@H]1C[C@H](O)[C@@]1(C)C(=O)[C@H](O)C3=C(C)[C@@H](OC(=O)[C@H](O)[C@@H](NC(=O)OC(C)(C)C)c4ccccc4)C[C@@](O)([C@@H](OC(=O)c4ccccc4)[C@H]21)C3(C)C` [docetaxel], the antitumor activity is given as “good antitumor activity”.

Test system: not given
Experiment: not given
Settings: background statement; cited from earlier work
Remark: another data set of the same source

For `CC(=O)O[C@H]1C(=O)[C@@]2(C)[C@H]([C@H](OC(=O)c3ccccc3)[C@]3(O)C[C@H](OC(=O)[C@H](O)[C@@H](NC(=O)c4ccccc4)c4ccccc4)C(C)=C1C3(C)C)[C@]1(OC(C)=O)CO[C@@H]1C[C@@H]2O` [paclitaxel], the “antitumor activity in in vivo animal models” value is listed as “excellent antitumor activity”.
